# Results reported in patent US8962641B2, “Pyrimidine-substituted pyrrolidine derivatives, pharmaceutical compositions and uses thereof” (Boehringer Ingelheim International GmbH, priority 2013, dated 2015).
# Target: human ACC2 (Homo sapiens (Human), UniProt O00763)
# Test: ACC2 assay (spectrophotometric 384 well assay, NADH-linked kinetic method)
# Type: biochemical
# Conditions: hACC2 construct lacking 128 N-terminal amino acids; coupled lactate dehydrogenase/pyruvate kinase reaction, 340 nm, 25° C.
# Summary of the method: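 Baculovirus/insect-cell human ACC2, anion-exchange purified; ADP formation coupled to pyruvate kinase/lactate dehydrogenase, NADH loss followed at 340 nm, 25° C, 15 min. Final 200 μM NADH and acetyl-CoA, 500 uM ATP; vehicle and no-acetyl-CoA wells set 100% and 0%.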
# human ACC2, sequence (O00763 129-2458): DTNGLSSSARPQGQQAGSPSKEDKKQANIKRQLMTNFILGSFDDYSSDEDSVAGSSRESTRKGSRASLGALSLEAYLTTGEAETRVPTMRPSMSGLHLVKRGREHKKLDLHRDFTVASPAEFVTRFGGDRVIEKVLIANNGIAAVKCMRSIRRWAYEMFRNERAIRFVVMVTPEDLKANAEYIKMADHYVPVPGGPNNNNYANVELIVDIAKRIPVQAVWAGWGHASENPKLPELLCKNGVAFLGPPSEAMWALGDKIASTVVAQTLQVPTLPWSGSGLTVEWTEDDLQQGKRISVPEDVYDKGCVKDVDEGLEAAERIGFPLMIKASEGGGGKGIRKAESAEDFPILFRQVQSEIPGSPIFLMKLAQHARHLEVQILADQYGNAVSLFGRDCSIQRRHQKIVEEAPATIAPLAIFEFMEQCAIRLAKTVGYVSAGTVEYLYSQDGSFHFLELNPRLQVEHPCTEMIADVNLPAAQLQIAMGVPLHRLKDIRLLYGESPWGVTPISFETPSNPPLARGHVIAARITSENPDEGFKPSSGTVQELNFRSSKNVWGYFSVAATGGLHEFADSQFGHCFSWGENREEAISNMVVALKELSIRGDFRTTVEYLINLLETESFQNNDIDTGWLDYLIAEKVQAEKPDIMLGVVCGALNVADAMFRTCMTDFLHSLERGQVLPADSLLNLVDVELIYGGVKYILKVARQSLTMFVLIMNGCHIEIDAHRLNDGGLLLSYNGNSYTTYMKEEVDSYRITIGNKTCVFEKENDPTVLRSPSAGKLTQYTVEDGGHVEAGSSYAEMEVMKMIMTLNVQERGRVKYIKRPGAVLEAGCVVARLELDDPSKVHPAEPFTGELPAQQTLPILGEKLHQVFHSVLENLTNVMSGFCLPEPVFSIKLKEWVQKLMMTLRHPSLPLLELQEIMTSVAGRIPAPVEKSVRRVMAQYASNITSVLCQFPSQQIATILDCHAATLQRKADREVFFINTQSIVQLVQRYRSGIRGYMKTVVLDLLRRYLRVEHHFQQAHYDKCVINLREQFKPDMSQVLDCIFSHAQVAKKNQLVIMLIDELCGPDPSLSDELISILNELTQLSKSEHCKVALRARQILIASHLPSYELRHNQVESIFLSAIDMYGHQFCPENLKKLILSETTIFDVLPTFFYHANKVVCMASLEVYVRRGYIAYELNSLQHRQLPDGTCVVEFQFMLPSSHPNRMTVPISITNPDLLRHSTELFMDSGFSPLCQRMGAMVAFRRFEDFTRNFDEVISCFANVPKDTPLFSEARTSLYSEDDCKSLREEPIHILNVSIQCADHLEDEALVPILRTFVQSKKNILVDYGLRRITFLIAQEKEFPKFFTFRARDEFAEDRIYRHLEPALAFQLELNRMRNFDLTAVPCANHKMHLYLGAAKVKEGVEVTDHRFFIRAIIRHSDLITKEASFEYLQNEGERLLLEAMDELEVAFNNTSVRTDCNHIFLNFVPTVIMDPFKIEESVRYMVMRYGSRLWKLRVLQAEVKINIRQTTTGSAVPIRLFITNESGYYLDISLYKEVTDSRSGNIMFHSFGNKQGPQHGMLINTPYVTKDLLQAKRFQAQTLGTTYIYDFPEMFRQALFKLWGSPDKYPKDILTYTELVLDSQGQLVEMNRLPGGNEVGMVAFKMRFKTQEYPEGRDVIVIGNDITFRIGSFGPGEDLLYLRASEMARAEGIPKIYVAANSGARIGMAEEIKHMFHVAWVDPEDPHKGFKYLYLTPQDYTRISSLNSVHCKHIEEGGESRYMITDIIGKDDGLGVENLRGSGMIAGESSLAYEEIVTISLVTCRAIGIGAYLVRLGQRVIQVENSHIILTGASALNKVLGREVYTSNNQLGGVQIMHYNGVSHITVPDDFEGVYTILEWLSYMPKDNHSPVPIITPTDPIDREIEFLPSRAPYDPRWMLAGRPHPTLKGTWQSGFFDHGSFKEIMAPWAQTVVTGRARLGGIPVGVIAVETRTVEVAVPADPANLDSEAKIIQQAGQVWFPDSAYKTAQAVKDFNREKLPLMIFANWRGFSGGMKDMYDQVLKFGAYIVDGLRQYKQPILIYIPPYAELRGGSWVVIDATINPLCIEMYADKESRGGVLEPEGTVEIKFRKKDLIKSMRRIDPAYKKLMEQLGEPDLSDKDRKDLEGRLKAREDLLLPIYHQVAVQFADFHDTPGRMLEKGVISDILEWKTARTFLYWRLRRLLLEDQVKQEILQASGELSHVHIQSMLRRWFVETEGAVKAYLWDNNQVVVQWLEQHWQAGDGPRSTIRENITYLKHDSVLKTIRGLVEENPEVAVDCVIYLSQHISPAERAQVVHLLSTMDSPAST
structure (smiles),measurement,value
"CC(=O)N[C@@H](C)c1ccc(O[C@@H]2CCN(c3nc(N(C)C)ncc3F)C2)cc1 [Example 8.1, N—((S)-1-(4-((R)-1-(2-(dimethylamino)-5-fluoropyrimidin-4-yl)pyrrolidin-3-yloxy)phenyl)ethyl)acetamide]",IC50,55 nM
CC(=O)N[C@@H](C)c1ccc(O[C@@H]2CCN(c3cc(N(C)CC4CC4)ncn3)C2)cc1 [Example 8.2],IC50,424 nM
CC(=O)N[C@@H](C)c1ccc(O[C@@H]2CCN(c3ccnc(N(C)CC4CC4)n3)C2)cc1 [Example 8.3],IC50,125 nM
CC(=O)N[C@@H](C)c1ccc(O[C@@H]2CCN(c3ccnc(NC4CCCC4)n3)C2)cc1 [Example 8.4],IC50,1030 nM
CC(=O)N[C@@H](C)c1ccc(O[C@@H]2CCN(c3ccnc(N4CCCC4)n3)C2)cc1 [Example 8.5],IC50,403 nM
CCCN(C)c1nccc(N2CC[C@@H](Oc3ccc([C@H](C)NC(C)=O)cc3)C2)n1 [Example 8.6],IC50,102 nM
CCCN(C)c1cc(N2CC[C@@H](Oc3ccc([C@H](C)NC(C)=O)cc3)C2)ncn1 [Example 8.7],IC50,865 nM
CC(=O)N[C@@H](C)c1ccc(O[C@@H]2CCN(c3nc(N4CCCCC4)ncc3F)C2)cc1 [Example 8.8],IC50,45 nM
CC(=O)N[C@@H](C)c1ccc(O[C@@H]2CCN(c3nc(N(C)CC4CC4)ncc3F)C2)cc1 [Example 8.9],IC50,33 nM
CC(=O)N[C@@H](C)c1ccc(O[C@@H]2CCN(c3nc(NC4CCCC4)ncc3F)C2)cc1 [Example 8.10],IC50,190 nM
CC(=O)N[C@@H](C)c1ccc(O[C@@H]2CCN(c3nc(N(C)C4CCCC4)ncc3F)C2)cc1 [Example 8.11],IC50,58 nM
CC(=O)N[C@@H](C)c1ccc(O[C@@H]2CCN(c3nc(N4CCCC4)ncc3F)C2)cc1 [Example 8.12],IC50,67 nM
CC(=O)N[C@@H](C)c1ccc(O[C@@H]2CCN(c3ccnc(N(C)C)n3)C2)cc1 [Example 8.14],IC50,710 nM
CC(=O)N[C@@H](C)c1ccc(O[C@@H]2CCN(c3ccnc(N4CCCC4C)n3)C2)cc1 (stereo partly shown) [Example 8.16],IC50,354 nM
CC(=O)N[C@@H](C)c1ccc(O[C@@H]2CCN(c3ccnc(N4CCC(C)C4)n3)C2)cc1 (stereo partly shown) [Example 8.17],IC50,167 nM
CC(=O)N[C@@H](C)c1ccc(O[C@@H]2CCN(c3ccnc(N4CCCCC4)n3)C2)cc1 [Example 8.18],IC50,160 nM
CC(=O)N[C@@H](C)c1ccc(O[C@@H]2CCN(c3ccnc(N(C)C4CC4)n3)C2)cc1 [Example 8.19],IC50,475 nM
CC(=O)N[C@@H](C)c1ccc(O[C@@H]2CCN(c3ccnc(N(C)C4CCCC4)n3)C2)cc1 [Example 8.20],IC50,170 nM
CCN(C)c1nccc(N2CC[C@@H](Oc3ccc([C@H](C)NC(C)=O)cc3)C2)n1 [Example 8.21],IC50,190 nM
CC(=O)N[C@@H](C)c1ccc(O[C@@H]2CCN(c3ccnc(N(C)CCc4ccccc4)n3)C2)cc1 [Example 8.22],IC50,986 nM
CC(=O)N[C@@H](C)c1ccc(O[C@@H]2CCN(c3ccnc(N(C)Cc4ccccc4)n3)C2)cc1 [Example 8.23],IC50,185 nM
CCN(CC)c1nccc(N2CC[C@@H](Oc3ccc([C@H](C)NC(C)=O)cc3)C2)n1 [Example 8.24],IC50,174 nM
CC(=O)N[C@@H](C)c1ccc(O[C@@H]2CCN(c3ccnc(N(C)C(C)C)n3)C2)cc1 [Example 8.25],IC50,294 nM
CCN(CC)c1ncc(F)c(N2CC[C@@H](Oc3ccc([C@H](C)NC(C)=O)cc3)C2)n1 [Example 8.26],IC50,69 nM
CC(=O)N[C@@H](C)c1ccc(O[C@@H]2CCN(c3nc(N(C)CC(F)F)ncc3F)C2)cc1 [Example 8.27],IC50,65 nM
CC(=O)N[C@@H](C)c1ccc(O[C@@H]2CCN(c3nc(N(C)CC(C)(C)O)ncc3F)C2)cc1 [Example 8.28],IC50,809 nM
CC(=O)N[C@@H](C)c1ccc(O[C@@H]2CCN(c3nc(N(C)CC4CCOC4)ncc3F)C2)cc1 (stereo partly shown) [Example 8.29],IC50,150 nM
CC(=O)N[C@@H](C)c1ccc(O[C@@H]2CCN(c3nc(N(C)CC(F)(F)F)ncc3F)C2)cc1 [Example 8.30],IC50,184 nM
CCN(C)c1ncc(F)c(N2CC[C@@H](Oc3ccc([C@H](C)NC(C)=O)cc3)C2)n1 [Example 8.31],IC50,95 nM
CC(=O)N[C@@H](C)c1ccc(O[C@@H]2CCN(c3nc(N(C)CCC(C)(C)O)ncc3F)C2)cc1 [Example 8.32],IC50,1070 nM
CC(=O)N[C@@H](C)c1ccc(O[C@@H]2CCN(c3nc(N(C)C4CCCC4)ncc3C#N)C2)cc1 [Example 8.33],IC50,1060 nM
CCCN(C)c1ncc(C#N)c(N2CC[C@@H](Oc3ccc([C@H](C)NC(C)=O)cc3)C2)n1 [Example 8.34],IC50,1080 nM
CCN(CC)c1ncc(C#N)c(N2CC[C@@H](Oc3ccc([C@H](C)NC(C)=O)cc3)C2)n1 [Example 8.35],IC50,824 nM
CC(=O)N[C@@H](C)c1ccc(O[C@@H]2CCN(c3nc(NC4(C)CCCC4)ncc3F)C2)cc1 [Example 8.36],IC50,539 nM
CC(=O)N[C@@H](C)c1ccc(O[C@@H]2CCN(c3ccnc(N(C)CCC#N)n3)C2)cc1 [Example 8.37],IC50,349 nM
COc1ccc(N(C)c2nccc(N3CC[C@@H](Oc4ccc([C@H](C)NC(C)=O)cc4)C3)n2)cc1 [Example 8.38],IC50,1220 nM
COc1cccc(N(C)c2nccc(N3CC[C@@H](Oc4ccc([C@H](C)NC(C)=O)cc4)C3)n2)c1 [Example 8.39],IC50,452 nM
CC(=O)N[C@@H](C)c1ccc(O[C@@H]2CCN(c3ccnc(N4CCC4)n3)C2)cc1 [Example 8.40],IC50,628 nM
CC(=O)N[C@@H](C)c1ccc(O[C@@H]2CCN(c3ccnc(N(C)CC4CCOC4)n3)C2)cc1 (stereo partly shown) [Example 8.41],IC50,286 nM
COC(CN(C)c1nccc(N2CC[C@@H](Oc3ccc([C@H](C)NC(C)=O)cc3)C2)n1)OC [Example 8.42],IC50,632 nM
CC(=O)N[C@@H](C)c1ccc(O[C@@H]2CCN(c3ccnc(N4CCC(F)(F)C4)n3)C2)cc1 [Example 8.43],IC50,79 nM
CC(=O)N[C@@H](C)c1ccc(O[C@@H]2CCN(c3ccnc(N(C)CC(F)F)n3)C2)cc1 [Example 8.44],IC50,55 nM
CC(=O)N[C@@H](C)c1ccc(O[C@@H]2CCN(c3ccnc(N4CC(F)(F)C4)n3)C2)cc1 [Example 8.45],IC50,192 nM
CC(=O)N[C@@H](C)c1ccc(O[C@@H]2CCN(c3ccnc(N(C)CC(F)(F)F)n3)C2)cc1 [Example 8.46],IC50,89 nM
CCCN(C)c1ncc(Cl)c(N2CC[C@@H](Oc3ccc([C@H](C)NC(C)=O)cc3)C2)n1 [Example 8.47],IC50,65 nM
CCCN(C)c1ncc(C)c(N2CC[C@@H](Oc3ccc([C@H](C)NC(C)=O)cc3)C2)n1 [Example 8.48],IC50,312 nM
COCCN(C)c1nccc(N2CC[C@@H](Oc3ccc([C@H](C)NC(C)=O)cc3)C2)n1 [Example 8.49],IC50,219 nM
CC(=O)N[C@@H](C)c1ccc(O[C@@H]2CCN(c3nc(N4CCCC4)ncc3Cl)C2)cc1 [Example 8.50],IC50,157 nM
CC(=O)N[C@@H](C)c1ccc(O[C@@H]2CCN(c3nc(N(C)C)ncc3Cl)C2)cc1 [Example 8.51],IC50,124 nM
CC(=O)N[C@@H](C)c1ccc(O[C@@H]2CCN(c3nc(N(C)CC4CCOC4)ncc3C)C2)cc1 (stereo partly shown) [Example 8.52],IC50,905 nM
CCN(C)c1ncc(C)c(N2CC[C@@H](Oc3ccc([C@H](C)NC(C)=O)cc3)C2)n1 [Example 8.53],IC50,452 nM
CC(=O)N[C@@H](C)c1ccc(O[C@@H]2CCN(c3nc(N(C)CC4CCOC4)ncc3Cl)C2)cc1 (stereo partly shown) [Example 8.54],IC50,125 nM
